Measured values published in the NIST ThermoML archive (doi:10.1016/j.tca.2017.12.006).

Conditions: Liquid, Transpiration method

COC(=O)CCC(C)=O [methyl levulinate]
Conditions	vapor or sublimation pressure [kPa]
293.5 K	0.0302
298.5 K	0.0442
303.3 K	0.0638
308.5 K	0.0929
313.4 K	0.1359
318.3 K	0.1837
323.2 K	0.2626
328.2 K	0.3572
333.2 K	0.501
338.2 K	0.659
343.1 K	0.878
348.2 K	1.142
353.2 K	1.473

CCCCOC(=O)CCC(C)=O [butyl levulinate]
Conditions	vapor or sublimation pressure [kPa]
298.2 K	0.00393
303.2 K	0.00611
308.1 K	0.00895
313 K	0.01421
318 K	0.01999
323 K	0.03006
327.9 K	0.0443
332.8 K	0.0632
337.8 K	0.0939
342.8 K	0.1289
347.8 K	0.181

CCOC(=O)CCC(C)=O [ethyl levulinate]
Conditions	vapor or sublimation pressure [kPa]
293.5 K	0.0169
298.4 K	0.0253
303.3 K	0.0375
308.3 K	0.0542
313.3 K	0.0795
318.3 K	0.1129
323.3 K	0.1613
328.2 K	0.2312
333.1 K	0.3106
338.1 K	0.415
343.1 K	0.553
348.8 K	0.758
